# Laboratory results: publication PMC3302575 (Biochemistry, 2011)
# Key:
# Assay in all cases: copurification, absorption spectroscopy of native protein
# Type in all cases: binding
# zebrafish CRY4 (ZfCRY4) = biological target: T1, zebrafish CRY4 (ZfCRY4) (Danio rerio, UniProt Q9I912); details: Sf21 medium with or without F0; pH 7.5
# T1 sequence (Q9I912 1-558): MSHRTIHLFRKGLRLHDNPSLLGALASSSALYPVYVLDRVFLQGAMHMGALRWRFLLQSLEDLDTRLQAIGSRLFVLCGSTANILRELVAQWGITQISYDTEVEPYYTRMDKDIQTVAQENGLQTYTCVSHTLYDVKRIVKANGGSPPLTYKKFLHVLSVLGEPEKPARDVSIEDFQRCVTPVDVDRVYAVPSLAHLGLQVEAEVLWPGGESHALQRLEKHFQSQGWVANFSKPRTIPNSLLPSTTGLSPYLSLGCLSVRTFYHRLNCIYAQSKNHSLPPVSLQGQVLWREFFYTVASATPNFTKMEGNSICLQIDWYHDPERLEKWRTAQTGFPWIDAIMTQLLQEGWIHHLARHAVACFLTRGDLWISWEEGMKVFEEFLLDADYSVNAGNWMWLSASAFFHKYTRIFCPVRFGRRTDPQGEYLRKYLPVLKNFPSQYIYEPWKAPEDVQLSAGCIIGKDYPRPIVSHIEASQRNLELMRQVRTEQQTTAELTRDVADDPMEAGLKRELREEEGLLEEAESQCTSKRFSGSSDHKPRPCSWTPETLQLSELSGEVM
# [1] = biological target: Drosophila cryptochrome (DmCRY) (Drosophila melanogaster, UniProt O77059); details: Sf21 medium with or without F0; pH 7.5
# [2] = biological target: A. thaliana CRY2 (AtCRY2) (Arabidopsis thaliana, UniProt Q96524); details: Sf21 medium with or without F0; pH 7.4
# Chain of A. thaliana CRY2 (AtCRY2) (Q96524 whole entry): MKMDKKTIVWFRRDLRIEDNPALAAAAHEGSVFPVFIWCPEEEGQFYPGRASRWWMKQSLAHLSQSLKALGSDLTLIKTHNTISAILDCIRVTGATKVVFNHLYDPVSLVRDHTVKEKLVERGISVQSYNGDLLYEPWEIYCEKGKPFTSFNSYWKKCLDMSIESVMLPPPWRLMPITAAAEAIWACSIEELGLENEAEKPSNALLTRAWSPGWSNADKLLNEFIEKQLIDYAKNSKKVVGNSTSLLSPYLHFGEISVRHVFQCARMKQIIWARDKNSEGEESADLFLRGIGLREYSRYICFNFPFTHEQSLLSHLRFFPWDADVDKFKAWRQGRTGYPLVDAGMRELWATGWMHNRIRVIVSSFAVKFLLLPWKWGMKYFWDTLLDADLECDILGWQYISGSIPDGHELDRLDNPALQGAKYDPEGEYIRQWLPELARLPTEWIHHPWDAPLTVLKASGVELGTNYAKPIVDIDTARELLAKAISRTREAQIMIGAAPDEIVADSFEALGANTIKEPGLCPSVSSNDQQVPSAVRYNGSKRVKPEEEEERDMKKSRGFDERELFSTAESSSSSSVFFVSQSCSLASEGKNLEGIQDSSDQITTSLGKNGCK
# Chain of Drosophila cryptochrome (DmCRY) (O77059 whole entry): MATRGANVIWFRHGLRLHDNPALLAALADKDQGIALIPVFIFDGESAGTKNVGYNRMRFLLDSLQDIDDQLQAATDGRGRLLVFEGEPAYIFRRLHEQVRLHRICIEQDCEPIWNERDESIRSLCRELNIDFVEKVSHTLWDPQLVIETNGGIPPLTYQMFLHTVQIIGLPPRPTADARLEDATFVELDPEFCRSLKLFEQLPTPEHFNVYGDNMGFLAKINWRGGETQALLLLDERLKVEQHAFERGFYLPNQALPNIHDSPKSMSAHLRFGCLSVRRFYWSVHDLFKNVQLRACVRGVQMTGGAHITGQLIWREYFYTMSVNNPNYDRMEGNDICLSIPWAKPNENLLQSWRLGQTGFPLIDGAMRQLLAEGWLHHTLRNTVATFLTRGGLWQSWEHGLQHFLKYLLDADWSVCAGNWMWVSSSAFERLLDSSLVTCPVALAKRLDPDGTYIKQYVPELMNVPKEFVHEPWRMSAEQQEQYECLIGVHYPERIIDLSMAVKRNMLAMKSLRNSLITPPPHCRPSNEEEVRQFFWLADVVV
smiles,measurement,setting,value
Cc1cc2nc3c(=O)[nH]c(=O)nc-3n(C[C@H](O)[C@H](O)[C@H](O)COP(=O)(O)OP(=O)(O)OC[C@H]3O[C@@H](n4cnc5c(N)ncnc54)[C@H](O)[C@@H]3O)c2cc1C [FAD],"copurification, absorption spectroscopy of native protein",zebrafish CRY4 (ZfCRY4),"both AtCRY2 (A,B) and ZfCRY4 (C,D), expressed with and without F0, contained FAD"
same,"copurification, absorption spectroscopy of native protein",[1],"exhibited only the spectra of enzyme-bound FAD (Fig. 4E,F)"
same,"copurification, absorption spectroscopy of native protein",[2],"both AtCRY2 (A,B) and ZfCRY4 (C,D), expressed with and without F0, contained FAD"
